From patent publication US11014934B2, “Antiseptic drug” (AO “TATKHIMFARMPREPARATY”, priority 2017, dated 2021)
Where two headings read alike, the source gives them in different places.

Experiments:
Assay in all cases: MIC, serial dilutions in Müller-Hinton broth
Assay type in all cases: cell-based
Moraxella sp. 765 = tested on: Moraxella sp. 765
Procedure, shortened: (§1)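 Broth microdilution in Müller-Hinton broth following MUK 4.2.1890-04, with two-fold compound dilutions at final 1-128 ug/ml. The inoculum was set to 0.5 McFarland and diluted to 10^7 CFU/ml before addition, then plates were incubated at 37° C. for 24 hours. MIC was the lowest concentration without visible growth, taking the highest of three independent runs.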

A. baumannii 1440 = tested on: A. baumannii 1440
Procedure, shortened: as §1

S. aureus 1065 MRSA = tested on: S. aureus 1065 MRSA
Procedure, shortened: as §1

S. intermedius 1143 MRSA = tested on: S. intermedius 1143 MRSA
Procedure, shortened: as §1

S. aureus 2020 MRSA = tested on: S. aureus 2020 MRSA
Procedure, shortened: as §1

Acinetobacter spp. 4 = tested on: Acinetobacter spp. 4
Procedure, shortened: as §1

Ps. aeruginosa 1959 = tested on: Ps. aeruginosa 1959
Procedure, shortened: as §1

Moraxella sp.829 = tested on: Moraxella sp.829
Procedure, shortened: as §1

S. aureus 1131 MRSA = tested on: S. aureus 1131 MRSA
Procedure, shortened: as §1

Moraxella sp. 723 = tested on: Moraxella sp. 723
Procedure, shortened: as §1

E. faecium 27 = tested on: E. faecium 27
Procedure, shortened: as §1

E. faecium 4403 = tested on: E. faecium 4403
Procedure, shortened: as §1

E. coli CDCF-50 = tested on: E. coli CDCF-50
Procedure, shortened: as §1

S. intermedius 1061 MRSI = tested on: S. intermedius 1061 MRSI
Procedure, shortened: as §1

S. aureus ATCC 29213 = tested on: S. aureus ATCC 29213
Procedure, shortened: as §1

Kl. pneumoniae = tested on: Kl. pneumoniae
Procedure, shortened: as §1

E. faecalis 3047 = tested on: E. faecalis 3047
Procedure, shortened: as §1

S. aureus 1145 MRSA = tested on: S. aureus 1145 MRSA
Procedure, shortened: as §1

Pseudomonas spp. 5 = tested on: Pseudomonas spp. 5
Procedure, shortened: as §1

E. faecalis 26 = tested on: E. faecalis 26
Procedure, shortened: as §1

S. aureus 983 MRSA = tested on: S. aureus 983 MRSA
Procedure, shortened: as §1

Kl. pneumoniae 1342 PR = tested on: Kl. pneumoniae 1342 PR
Procedure, shortened: as §1

For “alkyldimethyl(phenylmethyl) ammonium chloride [Benzalconium chloride]”, the MIC (Moraxella sp. 765; Moraxella sp. 765, inoculum 10^7 CFU/ml) was 32 µg/mL, the MIC (A. baumannii 1440; A. baumannii 1440, inoculum 10^7 CFU/ml) was 32 µg/mL and the MIC (S. aureus 1065 MRSA; S. aureus 1065 MRSA, inoculum 10^7 CFU/ml) was 4 µg/mL. It also gave an MIC (S. intermedius 1143 MRSA; S. intermedius 1143 MRSA, inoculum 10^7 CFU/ml) of 4 µg/mL, an MIC (S. aureus 2020 MRSA; S. aureus 2020 MRSA, inoculum 10^7 CFU/ml) of 4 µg/mL and an MIC (Acinetobacter spp. 4; Acinetobacter spp. 4, inoculum 10^7 CFU/ml) of 4 µg/mL. For the same molecule, the MIC (Ps. aeruginosa 1959; Ps. aeruginosa 1959, inoculum 10^7 CFU/ml) was greater than 64 µg/mL, the MIC (Moraxella sp.829; Moraxella sp.829, inoculum 10^7 CFU/ml) was 32 µg/mL and the MIC (S. aureus 1131 MRSA; S. aureus 1131 MRSA, inoculum 10^7 CFU/ml) was 2 µg/mL. For the same molecule, the MIC (Moraxella sp. 723; Moraxella sp. 723, inoculum 10^7 CFU/ml) was 4 µg/mL, the MIC (E. faecium 27; E. faecium 27, inoculum 10^7 CFU/ml) was 0.5 µg/mL and the MIC (E. faecium 4403; E. faecium 4403, inoculum 10^7 CFU/ml) was 2 µg/mL. It also gave an MIC (E. coli CDCF-50; E. coli CDCF-50, inoculum 10^7 CFU/ml) of 4 µg/mL, an MIC (S. intermedius 1061 MRSI; S. intermedius 1061 MRSI, inoculum 10^7 CFU/ml) of 4 µg/mL and an MIC (S. aureus ATCC 29213; S. aureus ATCC 29213, inoculum 10^7 CFU/ml) of 2 µg/mL. It also gave an MIC (Kl. pneumoniae; Kl. pneumoniae, inoculum 10^7 CFU/ml) greater than 64 µg/mL, an MIC (E. faecalis 3047; E. faecalis 3047, inoculum 10^7 CFU/ml) of 2 µg/mL and an MIC (S. aureus 1145 MRSA; S. aureus 1145 MRSA, inoculum 10^7 CFU/ml) of 2 µg/mL. It also gave an MIC (Pseudomonas spp. 5; Pseudomonas spp. 5, inoculum 10^7 CFU/ml) of 32 µg/mL, an MIC (E. faecalis 26; E. faecalis 26, inoculum 10^7 CFU/ml) of 0.5 µg/mL and an MIC (S. aureus 983 MRSA; S. aureus 983 MRSA, inoculum 10^7 CFU/ml) of 4 µg/mL. For the same molecule, the MIC (Kl. pneumoniae 1342 PR; Kl. pneumoniae 1342 PR, inoculum 10^7 CFU/ml) was 32 µg/mL.
`CCCCCCCCCCCC[N+](C)(C)Cc1cnc(C[N+](C)(C)CCCCCCCCCCCC)c2c1COC(CC)O2` (stereo not drawn) [Compound I, 5,8-(Bis(methylene (N, N-dimethyl-N-dodecylammonium))-2-ethyl-4H-[1,3]dioxino [4,5-c]pyridiniumdichloride] showed an MIC (Moraxella sp. 765; Moraxella sp. 765, inoculum 10^7 CFU/ml, read-out: MIC) of 4 µg/mL, an MIC (A. baumannii 1440; Acinetobacter baumannii, A. baumannii 1440, inoculum 10^7 CFU/ml, read-out: MIC) of 8 µg/mL and an MIC (S. aureus 1065 MRSA; Staphylococcus aureus, S. aureus 1065 MRSA, inoculum 10^7 CFU/ml, read-out: MIC) of 2 µg/mL. It also gave an MIC (S. intermedius 1143 MRSA; S. intermedius 1143 MRSA, inoculum 10^7 CFU/ml, read-out: MIC) of 4 µg/mL, an MIC (S. aureus 2020 MRSA; Staphylococcus aureus, S. aureus 2020 MRSA, inoculum 10^7 CFU/ml, read-out: MIC) of 4 µg/mL and an MIC (Acinetobacter spp. 4; Acinetobacter spp. 4, inoculum 10^7 CFU/ml, read-out: MIC) of 8 µg/mL. The MIC (Ps. aeruginosa 1959; Pseudomonas aeruginosa, Ps. aeruginosa 1959, inoculum 10^7 CFU/ml, read-out: MIC) was 32 µg/mL, the MIC (Moraxella sp.829; Moraxella sp.829, inoculum 10^7 CFU/ml, read-out: MIC) was 4 µg/mL and the MIC (S. aureus 1131 MRSA; Staphylococcus aureus, S. aureus 1131 MRSA, inoculum 10^7 CFU/ml, read-out: MIC) was 2 µg/mL. For the same molecule, the MIC (Moraxella sp. 723; Moraxella sp. 723, inoculum 10^7 CFU/ml, read-out: MIC) was 4 µg/mL, the MIC (E. faecium 27; Enterococcus faecium, E. faecium 27, inoculum 10^7 CFU/ml, read-out: MIC) was 0.03 µg/mL and the MIC (E. faecium 4403; Enterococcus faecium, E. faecium 4403, inoculum 10^7 CFU/ml, read-out: MIC) was 0.03 µg/mL. The MIC (E. coli CDCF-50; Escherichia coli, CDCF50, E. coli CDCF-50, inoculum 10^7 CFU/ml, read-out: MIC) was 8 µg/mL, the MIC (S. intermedius 1061 MRSI; S. intermedius 1061 MRSI, inoculum 10^7 CFU/ml, read-out: MIC) was 1 µg/mL and the MIC (S. aureus ATCC 29213; Staphylococcus aureus, ATCC29213, S. aureus ATCC 29213, inoculum 10^7 CFU/ml, read-out: MIC) was 4 µg/mL. The MIC (Kl. pneumoniae; Klebsiella pneumoniae, Kl. pneumoniae, inoculum 10^7 CFU/ml, read-out: MIC) was 2 µg/mL, the MIC (E. faecalis 3047; Enterococcus faecalis, E. faecalis 3047, inoculum 10^7 CFU/ml, read-out: MIC) was 4 µg/mL and the MIC (S. aureus 1145 MRSA; Staphylococcus aureus, S. aureus 1145 MRSA, inoculum 10^7 CFU/ml, read-out: MIC) was 2 µg/mL. It also gave an MIC (Pseudomonas spp. 5; Pseudomonas spp. 5, inoculum 10^7 CFU/ml, read-out: MIC) of 8 µg/mL, an MIC (E. faecalis 26; Enterococcus faecalis, E. faecalis 26, inoculum 10^7 CFU/ml, read-out: MIC) of 1 µg/mL and an MIC (S. aureus 983 MRSA; Staphylococcus aureus, S. aureus 983 MRSA, inoculum 10^7 CFU/ml, read-out: MIC) of 8 µg/mL. The MIC (Kl. pneumoniae 1342 PR; Klebsiella pneumoniae, Kl. pneumoniae 1342 PR, inoculum 10^7 CFU/ml, read-out: MIC) was 32 µg/mL.
Molecule `CCCCCCCCCCCCCC(=O)NCCC[N+](C)(C)Cc1ccccc1.O.[Cl-]` [Miramistin, benzyldimethyl [3-(myristoylamino)propyl]-ammonium chloride monohydrate] has an MIC (Moraxella sp. 765; Moraxella, SP.765) of 64 µg/mL, an MIC (A. baumannii 1440; Acinetobacter baumannii, 1440) of 64 µg/mL and an MIC (S. aureus 1065 MRSA; Staphylococcus aureus, MRSA) of 8 µg/mL. For the same molecule, the MIC (S. intermedius 1143 MRSA) was 8 µg/mL, the MIC (S. aureus 2020 MRSA; Staphylococcus aureus, MRSA) was 8 µg/mL and the MIC (Acinetobacter spp. 4; Acinetobacter, SPP.4) was greater than 64 µg/mL. For the same molecule, the MIC (Ps. aeruginosa 1959; Pseudomonas aeruginosa, 1959) was 64 µg/mL, the MIC (Moraxella sp.829; Moraxella, SP.829) was 32 µg/mL and the MIC (S. aureus 1131 MRSA; Staphylococcus aureus, MRSA) was 4 µg/mL. The MIC (Moraxella sp. 723; Moraxella, SP.723) was 32 µg/mL, the MIC (E. faecium 27; Enterococcus faecium, 27) was 32 µg/mL and the MIC (E. faecium 4403; Enterococcus faecium, 4403) was 64 µg/mL. For the same molecule, the MIC (E. coli CDCF-50; Escherichia coli, CDCF50) was 64 µg/mL, the MIC (S. intermedius 1061 MRSI) was 8 µg/mL and the MIC (S. aureus ATCC 29213; Staphylococcus aureus, ATCC29213) was 16 µg/mL. For the same molecule, the MIC (Kl. pneumoniae; Klebsiella pneumoniae) was greater than 64 µg/mL, the MIC (E. faecalis 3047; Enterococcus faecalis, 3047) was 2 µg/mL and the MIC (S. aureus 1145 MRSA; Staphylococcus aureus, MRSA) was 8 µg/mL. The MIC (Pseudomonas spp. 5; Pseudomonas, SPP.5) was greater than 64 µg/mL, the MIC (E. faecalis 26; Enterococcus faecalis, 26) was 4 µg/mL and the MIC (S. aureus 983 MRSA; Staphylococcus aureus, MRSA) was 4 µg/mL. It also gave an MIC (Kl. pneumoniae 1342 PR; Klebsiella pneumoniae, 1342PR) of 64 µg/mL.
